From patent US20080234262A1 (Wyeth, priority 2007, published 2008)
Read-outs that look alike come from different tables or passages of the source.

Columns and labels:
PI3K = PI3K (Homo sapiens, UniProt P42336); test: Fluorescence polarization assay for PI3K; assay type: biochemical;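 note: PI3K kinase reaction on PIP2 with ATP, 30-60 min, product sensed by GST-GRP with red probe in fluorescence polarization (mP), controls without enzyme and at zero time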
prostate line LNCap = test: In vitro cell culture growth assay (MTS), LNCap; assay type: cell-based, human; details: LNCap cells, three days after drug treatment;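 note: viable cell density read by absorbance at 490 nm, growth expressed as percent of vehicle-treated cells on the same plate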
breast line MDA468 = test: In vitro cell culture growth assay (MTS), MDA468; assay type: cell-based, human; details: MDA468 cells, three days after drug treatment
How it was run: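 Steps: plate cells; add inhibitors the next day; incubate 3 days; add MTS dye, which viable cells convert metabolically; measure absorbance at 490 nm; calculate percent of control growth relative to vehicle-treated cells in the same plate.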

Chain of PI3K (P42336 whole entry): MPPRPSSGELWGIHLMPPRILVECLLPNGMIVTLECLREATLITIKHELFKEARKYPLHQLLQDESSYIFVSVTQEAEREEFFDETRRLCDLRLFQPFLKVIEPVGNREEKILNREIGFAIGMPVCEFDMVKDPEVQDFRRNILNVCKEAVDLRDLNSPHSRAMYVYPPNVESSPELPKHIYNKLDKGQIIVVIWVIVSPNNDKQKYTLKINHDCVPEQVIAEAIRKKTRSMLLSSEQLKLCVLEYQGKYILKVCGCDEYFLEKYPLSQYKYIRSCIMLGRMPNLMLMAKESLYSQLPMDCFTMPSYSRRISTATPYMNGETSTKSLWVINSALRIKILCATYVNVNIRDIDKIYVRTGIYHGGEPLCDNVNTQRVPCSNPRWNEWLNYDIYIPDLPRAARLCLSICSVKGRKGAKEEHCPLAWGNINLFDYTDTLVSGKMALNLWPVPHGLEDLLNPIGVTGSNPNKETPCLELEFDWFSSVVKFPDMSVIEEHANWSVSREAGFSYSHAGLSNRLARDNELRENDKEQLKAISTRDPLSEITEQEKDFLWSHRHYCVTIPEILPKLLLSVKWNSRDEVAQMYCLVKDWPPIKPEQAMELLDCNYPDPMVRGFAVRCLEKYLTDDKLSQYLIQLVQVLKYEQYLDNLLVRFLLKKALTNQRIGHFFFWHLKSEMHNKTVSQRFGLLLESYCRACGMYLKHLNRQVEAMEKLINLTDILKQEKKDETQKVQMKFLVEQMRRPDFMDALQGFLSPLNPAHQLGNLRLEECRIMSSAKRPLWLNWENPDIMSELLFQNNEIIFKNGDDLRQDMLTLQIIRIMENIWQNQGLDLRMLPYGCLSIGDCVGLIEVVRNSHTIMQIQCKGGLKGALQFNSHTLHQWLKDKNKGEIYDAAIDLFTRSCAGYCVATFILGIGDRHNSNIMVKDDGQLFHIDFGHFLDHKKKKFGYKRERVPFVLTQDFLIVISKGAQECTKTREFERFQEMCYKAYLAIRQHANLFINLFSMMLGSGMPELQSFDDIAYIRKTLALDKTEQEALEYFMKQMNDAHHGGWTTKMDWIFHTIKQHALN
Chain of PI3K (P27986 whole entry partner): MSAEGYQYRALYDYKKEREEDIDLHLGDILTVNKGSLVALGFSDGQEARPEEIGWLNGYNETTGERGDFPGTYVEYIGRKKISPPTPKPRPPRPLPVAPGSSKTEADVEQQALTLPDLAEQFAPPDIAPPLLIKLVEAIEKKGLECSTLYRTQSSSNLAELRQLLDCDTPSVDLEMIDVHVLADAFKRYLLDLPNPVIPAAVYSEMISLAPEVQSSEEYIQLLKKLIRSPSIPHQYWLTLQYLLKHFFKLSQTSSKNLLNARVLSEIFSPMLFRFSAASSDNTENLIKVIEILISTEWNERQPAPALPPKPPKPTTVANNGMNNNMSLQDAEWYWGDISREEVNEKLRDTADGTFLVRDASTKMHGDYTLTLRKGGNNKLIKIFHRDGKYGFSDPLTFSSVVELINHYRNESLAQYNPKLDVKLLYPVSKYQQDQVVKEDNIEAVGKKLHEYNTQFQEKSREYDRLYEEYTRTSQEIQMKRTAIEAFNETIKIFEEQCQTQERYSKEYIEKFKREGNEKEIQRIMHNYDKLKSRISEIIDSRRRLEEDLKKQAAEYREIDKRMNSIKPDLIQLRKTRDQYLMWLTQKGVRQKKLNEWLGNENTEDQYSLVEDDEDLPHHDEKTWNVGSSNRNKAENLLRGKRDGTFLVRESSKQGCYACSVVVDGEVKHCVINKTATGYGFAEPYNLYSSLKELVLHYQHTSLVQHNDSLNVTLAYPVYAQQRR

| Compound | IC50 (PI3K; PI3Kα; read-out: PI3Kα IC50) [nM] | IC50 (prostate line LNCap; Homo sapiens, LNCaP, 72 h) [nM] | IC50 (breast line MDA468; Homo sapiens, 72 h) [nM] | IC50 (PI3K; read-out: PI3Kα IC50; PI3Kα) [nM] | IC50 (prostate line LNCap) [nM] | IC50 (breast line MDA468) [nM] |
| --- | --- | --- | --- | --- | --- | --- |
| NCCNC(=O)Nc1ccc(-c2nc(N3CCOCC3)c3cnn(C4CCN(Cc5ccccc5)CC4)c3n2)cc1 [Example 267, 1-(2-aminoethyl)-3-{4-[1-(1-benzylpiperidin-4-yl)-4-morpholin-4-yl-1H-pyrazolo[3,4-d]pyrimidin-6-yl]phenyl}urea] | 14 | 2000 | 2700 |  |  |  |
| O=C(Nc1ccc(-c2nc(N3CCOCC3)c3cnn(C4CCN(Cc5ccccc5)CC4)c3n2)cc1)NN1CCCC1 [Compound 537, 1-{4-[1-(1-benzylpiperidin-4-yl)-4-morpholin-4-yl-1H-pyrazolo[3,4-d]pyrimidin-6-yl]phenyl}-3-pyrrolidin-1-ylurea] | 4230 | 3000 | 10000 |  |  |  |
| NCc1cccc(-c2nc(N3CCOCC3)c3cnn(-c4ccccc4)c3n2)c1 [Compound 144] | 627 | 2400 | 3800 |  |  |  |
| NNC(=O)Nc1ccc(-c2nc(N3CCOCC3)c3cnn(-c4ccccc4)c3n2)cc1 [Example 292, N-[4-(4-morpholin-4-yl-1-phenyl-1H-pyrazolo[3,4-d]pyrimidin-6-yl)phenyl]hydrazinecarboxamide] | 171 | 5200 | 8000 |  |  |  |
| CNC(=O)Nc1ccc(-c2nc(N3CCOCC3)c3cnn(C4CCN(C(=S)NC)CC4)c3n2)cc1 [Compound 760, N-methyl-4-(6-{4-[(methylcarbamoyl)amino]phenyl}-4-morpholin-4-yl-1H-pyrazolo[3,4-d]pyrimidin-1-yl)piperidine-1-carbothioamide] | 42 | 170 | 50 |  |  |  |
| CNC(=O)Nc1ccc(-c2nc(N3CCOCC3)c3cnn(C4CCN(C(=O)c5ccc(OC)cc5)CC4)c3n2)cc1 [Example 363, 1-(4-{1-[1-(4-methoxybenzoyl)piperidin-4-yl]-4-morpholin-4-yl-1H-pyrazolo[3,4-d]pyrimidin-6-yl}phenyl)-3-methylurea] | 55 | 45 | 400 |  |  |  |
| O=CNc1ccc(-c2nc(N3CCOCC3)c3cnn(-c4ccccc4)c3n2)cc1 [Compound 118] | 122 | 7000 | 20000 |  |  |  |
| O=C(Oc1ccccc1)N1CCC(n2ncc3c(N4CCOCC4)nc(-c4ccc5[nH]ccc5c4)nc32)CC1 [Compound 493, phenyl 4-[6-(1H-indol-5-yl)-4-morpholin-4-yl-1H-pyrazolo[3,4-d]pyrimidin-1-yl]piperidine-1-carboxylate] |  |  |  | 535 | 1300 | 4300 |
| CONC(=O)Nc1ccc(-c2nc(N3CCOCC3)c3cnn(-c4ccccc4)c3n2)cc1 [Compound 295, 1-methoxy-3-[4-(4-morpholin-4-yl-1-phenyl-1H-pyrazolo[3,4-d]pyrimidin-6-yl)phenyl]urea] | 404 | 1800 | 5000 |  |  |  |
| CCNC(=O)Nc1ccc(-c2nc(N3CCOCC3)c3cnn(C4CCN(C(=O)OCC)CC4)c3n2)cc1 [Compound 820, ethyl 4-(6-{4-[(ethylcarbamoyl)amino]phenyl}-4-morpholin-4-yl-1H-pyrazolo[3,4-d]pyrimidin-1-yl)piperidine-1-carboxylate] | 704 | < 27 | 130 |  |  |  |
| CCOC(=O)N1CCC(n2ncc3c(N4CCOC[C@@H]4C)nc(-c4ccc(NC(=O)Nc5ccc(N6CCOCC6)cc5)cc4)nc32)CC1 [Compound 899, ethyl 4-{4-[(3S)-3-methylmorpholin-4-yl]-6-(4-{[(4-morpholin-4-ylphenyl)carbamoyl]amino}phenyl)-1H-pyrazolo[3,4-d]pyrimidin-1-yl}piperidine-1-carboxylate] | 30 | 6.8 | 150 |  |  |  |
| CNC(=O)Nc1ccc(-c2nc(N3CCOCC3)c3cnn(C4CCN(CC(F)(F)F)CC4)c3n2)cc1 [Example 470, 1-methyl-3-(4-{4-morpholin-4-yl-1-[1-(2,2,2-trifluoroethyl)piperidin-4-yl]-1H-pyrazolo[3,4-d]pyrimidin-6-yl}phenyl)urea] | 187 | 56 | 300 |  |  |  |
| CNC(=O)Nc1ccc(-c2nc(N3CCOCC3)c3cnn(C4CCN(C(=O)c5ccccc5Cl)CC4)c3n2)cc1 [Compound 601, 1-(4-{1-[1-(2-chlorobenzoyl)piperidin-4-yl]-4-morpholin-4-yl-1H-pyrazolo[3,4-d]pyrimidin-6-yl}phenyl)-3-methylurea] | 79 | < 27 | < 27 |  |  |  |
| C=CC(=O)N1CCC(n2ncc3c(N4CCOCC4)nc(-c4ccc(NC(=O)NC)cc4)nc32)CC1 [Compound 758, 1-{4-[1-(1-acryloylpiperidin-4-yl)-4-morpholin-4-yl-1H-pyrazolo[3,4-d]pyrimidin-6-yl]phenyl}-3-methylurea] | 98 | 370 | 300 |  |  |  |
| CN(C)S(=O)(=O)c1ccc(-c2nc(N3CCOCC3)c3cnn(C4CCN(Cc5ccccc5)CC4)c3n2)cc1 [Compound 87] | 780 | 23000 | 60000 |  |  |  |
| CNC(=O)Nc1ccc(-c2nc(N3CCOCC3)c3cnn(C4CCN(Cc5cncc(F)c5)CC4)c3n2)cc1 [Example 392, 1-[4-(1-{1-[(5-fluoropyridin-3-yl)methyl]piperidin-4-yl}-4-morpholin-4-yl-1H-pyrazolo[3,4-d]pyrimidin-6-yl)phenyl]-3-methylurea] | 153 | 110 | 600 |  |  |  |
| N#CN=C(N)Nc1ccc(-c2nc(N3CCOCC3)c3cnn(C4CCN(C(=O)c5cccnc5)CC4)c3n2)cc1 [Example 411, 2-cyano-1-(4-{4-morpholin-4-yl-1-[1-(pyridin-3-ylcarbonyl)piperidin-4-yl]-1H-pyrazolo[3,4-d]pyrimidin-6-yl}phenyl)guanidine] | 344 | 20000 | 12000 |  |  |  |
| CNC(=O)Nc1ccc(-c2nc(N3CCOCC3)c3cnn([C@@H]4CCCN(C(=O)OC(C)(C)C)C4)c3n2)cc1 [Compound 874, tert-butyl (3R)-3-(6-{4-[(methylcarbamoyl)amino]phenyl}-4-morpholin-4-yl-1H-pyrazolo[3,4-d]pyrimidin-1-yl)piperidine-1-carboxylate] | 294 | 400 | 1100 |  |  |  |
| CNC(=O)Nc1ccc(-c2nc(N3CCOCC3)c3cnn(C4CCN(Cc5ccccc5C)CC4)c3n2)cc1 [Compound 673, 1-methyl-3-(4-{1-[1-(2-methylbenzyl)piperidin-4-yl]-4-morpholin-4-yl-1H-pyrazolo[3,4-d]pyrimidin-6-yl}phenyl)urea] | 50 |  |  |  | 40 | 180 |
| O=C(NCCF)Nc1ccc(-c2nc(N3CCOCC3)c3cnn(C4CCN(CCCCO)CC4)c3n2)cc1 [Compound 747, 1-(2-fluoroethyl)-3-(4-{1-[1-(4-hydroxybutyl)piperidin-4-yl]-4-morpholin-4-yl-1H-pyrazolo[3,4-d]pyrimidin-6-yl}phenyl)urea] | 782 | 3300 | 6660 |  |  |  |
| NC(=O)Nc1ccc(-c2nc(N3CCOCC3)c3cnn(C4CCN(C(=O)c5cccnc5)CC4)c3n2)cc1 [Example 301, 1-(4-{4-morpholin-4-yl-1-[1-(pyridin-3-ylcarbonyl)piperidin-4-yl]-1H-pyrazolo[3,4-d]pyrimidin-6-yl}phenyl)urea] | 179 | 3000 | 1800 |  |  |  |
| Fc1ccc(CN2CCC(n3ncc4c(N5CCOCC5)nc(-c5ccc6[nH]ccc6c5)nc43)CC2)cc1 [Example 55] | 686 | 2500 | 3000 |  |  |  |
| CN(C)CCCNC(=O)Nc1ccc(-c2nc(N3CCOCC3)c3cnn(C4CCN(Cc5ccccc5)CC4)c3n2)cc1 [Compound 271, 1-{4-[1-(1-benzylpiperidin-4-yl)-4-morpholin-4-yl-1H-pyrazolo[3,4-d]pyrimidin-6-yl]phenyl}-3-[3-(dimethylamino)propyl]urea] | 158 | 650 | 2000 |  |  |  |
| COc1ncccc1CN1CCC(n2ncc3c(N4CCOCC4)nc(-c4ccc5[nH]ccc5c4)nc32)CC1 [Compound 177] | 885 | 1300 | 3100 |  |  |  |
| CC(C)(C)OC(=O)N1CCC(n2ncc3c(N4CCOCC4)nc(-c4ccc(NC(=O)Nc5cccnc5)cc4)nc32)CC1 [Compound 770, tert-butyl 4-(4-morpholin-4-yl-6-{4-[(pyridin-3-ylcarbamoyl)amino]phenyl}-1H-pyrazolo[3,4-d]pyrimidin-1-yl)piperidine-1-carboxylate] | 56 | 105 | 260 |  |  |  |
| Nc1ccc(-c2nc(N3CCOCC3)c3cnn(C4CCN(Cc5ccccc5)CC4)c3n2)cc1F [Compound 347, 4-[1-(1-benzylpiperidin-4-yl)-4-morpholin-4-yl-1H-pyrazolo[3,4-d]pyrimidin-6-yl]-2-fluoroaniline] | 1650 | 2000 | 4000 |  |  |  |
| CC(c1ccccc1)N1CCC(n2ncc3c(N4CCOCC4)nc(-c4ccc5[nH]ccc5c4)nc32)CC1 (stereo not drawn) [Compound 240, 6-(1H-indol-5-yl)-4-morpholin-4-yl-1-[1-(1-phenylethyl)piperidin-4-yl]-1H-pyrazolo[3,4-d]pyrimidine] | 2670 | 3800 | 3500 |  |  |  |
| CCNC(=O)Nc1cc(F)c(-c2nc(N3CCOCC3)c3cnn(C4CCN(C(=O)c5cccnc5)CC4)c3n2)cc1F [Example 466, 1-(2,5-difluoro-4-{4-morpholin-4-yl-1-[1-(pyridin-3-ylcarbonyl)piperidin-4-yl]-1H-pyrazolo[3,4-d]pyrimidin-6-yl}phenyl)-3-ethylurea] | 3110 | 1050 | 3300 |  |  |  |
